How the values were obtained:
Type in all cases: cell-based
[1] = target: T1, RORγ (Homo sapiens, UniProt P51449); assay: RORγ Gal4 reporter assay (Gal4-luciferase, Jurkat cells); details: Jurkat cells over-expressing RORγ, overnight incubation
T1 construct: Jurkat pEx/Gal/hRORγCLBD/HYG pG5luc/blast; expressed in transfected cells
T1 sequence (P51449 269-508 limits assumed): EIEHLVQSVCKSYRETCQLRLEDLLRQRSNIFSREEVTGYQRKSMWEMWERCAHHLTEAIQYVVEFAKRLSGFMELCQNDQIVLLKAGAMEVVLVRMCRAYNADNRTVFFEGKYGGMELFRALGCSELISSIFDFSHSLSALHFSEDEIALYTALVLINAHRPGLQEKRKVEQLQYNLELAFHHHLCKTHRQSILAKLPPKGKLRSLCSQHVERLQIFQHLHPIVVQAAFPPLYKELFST
Experimental: General RORγ Gal4 Reporter Assay
Inverse agonist activity of potential ligands to RORγ was measured by inhibition of luminescence in a Gal4-luciferase reporter assay in Jurkat cells.
The following day, cells were lysed with 10 μL of Steady-Glo Luciferase Assay System (Promega Cat. No. EZ550), and analyzed immediately. IC50 values were determined.

[2] = system: IL17A; assay: Human whole blood assay (IL17A content, AlphaLISA); details: compared with Compound A
Experimental: The compounds were diluted in dimethyl sulfoxide (DMSO) and were transferred to individual wells of a Matrix Technologies clear, V-bottom 384-well plate using the ECHO acoustic liquid handling technology (60 nL per well). Human whole blood samples (30 μL) were added to each well using a CyBio FeliX liquid handling instrument and the plate was shaken on a plate shaker for 3 min, incubating at 37° C. for 1 h. Wells were then treated with CD3+CD28 with a final concentration of 1 μg/mL, 30 μL per well in an AIM-V medium, the plate was shaken on a plate shaker for 3 min before incubating the reaction mixtures at 37° C. for 20 h. Plasma was liberated from each sample by centrifugation (450 g, 5 min, ambient temperature).

[3] = target: T2, human sodium channel gene SCN5A ion channel (Homo sapiens, UniProt Q14524); assay: Patch clamp assay for sodium channel recording; details: HEK 293 cells expressing SCN5A
T2 construct: expressed in transfected cells
T2 sequence (Q14524 whole entry): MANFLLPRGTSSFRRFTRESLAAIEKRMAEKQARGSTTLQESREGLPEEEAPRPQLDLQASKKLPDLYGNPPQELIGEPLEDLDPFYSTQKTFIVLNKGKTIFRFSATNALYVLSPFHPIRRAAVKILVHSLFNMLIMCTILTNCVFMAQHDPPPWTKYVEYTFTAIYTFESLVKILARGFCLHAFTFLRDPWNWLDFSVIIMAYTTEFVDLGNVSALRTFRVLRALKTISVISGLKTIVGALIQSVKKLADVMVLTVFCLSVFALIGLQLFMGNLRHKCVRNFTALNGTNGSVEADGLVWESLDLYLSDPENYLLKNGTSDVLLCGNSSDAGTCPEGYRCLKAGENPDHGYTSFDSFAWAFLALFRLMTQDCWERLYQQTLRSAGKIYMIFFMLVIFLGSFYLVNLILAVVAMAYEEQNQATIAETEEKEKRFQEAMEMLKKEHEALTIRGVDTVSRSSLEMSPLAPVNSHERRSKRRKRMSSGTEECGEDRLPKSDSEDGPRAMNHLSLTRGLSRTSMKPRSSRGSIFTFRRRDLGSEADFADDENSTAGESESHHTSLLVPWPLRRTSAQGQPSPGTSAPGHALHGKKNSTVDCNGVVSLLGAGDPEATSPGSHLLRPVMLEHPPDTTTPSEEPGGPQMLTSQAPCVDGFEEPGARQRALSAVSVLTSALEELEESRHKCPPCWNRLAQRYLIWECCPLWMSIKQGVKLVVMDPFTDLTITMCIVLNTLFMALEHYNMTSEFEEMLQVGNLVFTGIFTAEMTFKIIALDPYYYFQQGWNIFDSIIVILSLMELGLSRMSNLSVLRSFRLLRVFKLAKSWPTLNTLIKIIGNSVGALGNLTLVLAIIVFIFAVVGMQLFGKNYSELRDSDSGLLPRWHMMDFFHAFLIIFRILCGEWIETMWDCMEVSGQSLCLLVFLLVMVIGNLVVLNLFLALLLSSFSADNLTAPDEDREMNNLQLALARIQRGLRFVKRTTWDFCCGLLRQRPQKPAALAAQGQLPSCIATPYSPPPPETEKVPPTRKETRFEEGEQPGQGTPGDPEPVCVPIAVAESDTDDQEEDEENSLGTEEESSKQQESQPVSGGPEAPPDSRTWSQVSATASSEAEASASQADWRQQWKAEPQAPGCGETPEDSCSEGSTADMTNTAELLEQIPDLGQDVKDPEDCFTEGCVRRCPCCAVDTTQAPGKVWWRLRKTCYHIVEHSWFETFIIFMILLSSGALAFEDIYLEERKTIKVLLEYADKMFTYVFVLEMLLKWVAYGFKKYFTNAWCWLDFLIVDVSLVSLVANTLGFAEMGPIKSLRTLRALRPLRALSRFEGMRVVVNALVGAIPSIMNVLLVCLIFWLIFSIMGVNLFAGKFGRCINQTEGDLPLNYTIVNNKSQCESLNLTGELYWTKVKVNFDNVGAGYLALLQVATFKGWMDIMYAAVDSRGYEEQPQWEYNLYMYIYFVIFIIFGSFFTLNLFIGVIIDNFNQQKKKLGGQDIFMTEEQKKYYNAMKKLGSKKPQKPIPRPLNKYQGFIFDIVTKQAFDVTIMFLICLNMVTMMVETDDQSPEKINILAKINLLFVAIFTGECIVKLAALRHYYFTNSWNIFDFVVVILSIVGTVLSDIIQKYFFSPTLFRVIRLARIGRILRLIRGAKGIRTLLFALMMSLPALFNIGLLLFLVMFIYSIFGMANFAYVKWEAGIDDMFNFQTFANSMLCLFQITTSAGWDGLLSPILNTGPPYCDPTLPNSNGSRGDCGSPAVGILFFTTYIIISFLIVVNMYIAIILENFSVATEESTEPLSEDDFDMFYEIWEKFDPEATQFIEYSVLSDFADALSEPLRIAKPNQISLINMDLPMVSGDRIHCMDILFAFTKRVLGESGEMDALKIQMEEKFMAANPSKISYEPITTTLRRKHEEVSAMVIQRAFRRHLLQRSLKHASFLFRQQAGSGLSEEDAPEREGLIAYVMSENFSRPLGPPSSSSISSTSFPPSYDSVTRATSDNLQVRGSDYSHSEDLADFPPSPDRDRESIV
Source text: All results are reported as mean±SEM. DMSO was used as a vehicle, with the final concentration of DMSO not exceeding 0.1%.
Membrane current recordings were made with a Multiclamp 700 series integrating patch-clamp amplifier (Axon Instruments, Foster City, California) using the whole-cell variant of the conventional patch-clamp technique. Cells expressing sodium SCN5A ion channels were placed in a plexiglass bath chamber, mounted on the stage of an inverted microscope, and perfused continuously with bath solution.
The sodium current bath solution, contained (in mM): 140 NaCl, 4 KCl, 1.8 CaCl2, 1 MgCl2, 10 glucose, 10 HEPES (pH 7.4, NaOH). […]
For determining steady state inhibition, sodium currents were elicited every 5 seconds (0.2 Hz) using the following voltage protocol. […] The peak sodium current in response to the depolarizing step to −20 mV was monitored in the control buffer and after application of test article until a new steady state in the presence of the test article was achieved. […] Rate dependent inhibition was calculated by comparing the average of the last 3 sweeps of 30 voltage sweeps in presence of test article to the average of the last 3 sweeps of 30 voltage sweeps under control conditions at each frequency tested.
Currents were sampled at rates at least 2 times the low pass filter rate. […] All currents were recorded at room temperature ˜25° C.

SMILES	IC50 [1]	potency in the human whole blood assay relative to Compound A [2]	activity in the Na channel assay (in words) [3]	IC50 ([3]; whole-cell patch clamp, read-out: Na Channel)
O=C(O)C1CC2(C1)CC(C(=O)N[C@@H]1CC[C@@]3(S(=O)(=O)c4ccc(F)cc4)c4ccc(C(F)(C(F)(F)F)C(F)(F)F)nc4CC[C@@H]13)C2 (stereo partly shown) [Example 6]	7.9 nM			
CC(C)(O)CC(=O)N[C@@H]1CC[C@@]2(S(=O)(=O)c3ccc(F)cc3)c3ccc(C(F)(C(F)(F)F)C(F)(F)F)nc3CC[C@@H]12 [Example 2]	6 nM			
C[C@@](O)(CS(C)(=O)=O)C(=O)N[C@@H]1CC[C@@]2(S(=O)(=O)c3ccc(F)cc3)c3ccc(C(F)(C(F)(F)F)C(F)(F)F)nc3CC[C@@H]12 [Example 1, (S)—N-((6aS,7R,9aS)-9a-((4-fluorophenyl)sulfonyl)-3-(perfluoropropan-2-yl)-6,6a,7,8,9,9a-hexahydro-5H-cyclopenta[f]quinolin-7-yl)-2-hydroxy-2-methyl-3-(methylsulfonyl)propanamide]		twice as potent	essentially inactive	> 30000 nM
O=C(N[C@@H]1CC[C@@]2(S(=O)(=O)c3ccc(F)cc3)c3ccc(C(F)(C(F)(F)F)C(F)(F)F)nc3CC[C@@H]12)C1CCS(=O)(=O)CC1 [Example 3]	8.4 nM			
CC(C)(O)C(=O)N[C@@H]1CC[C@@]2(S(=O)(=O)c3ccc(F)cc3)c3ccc(C(F)(C(F)(F)F)C(F)(F)F)nc3CC[C@@H]12 [Example 4]	3.9 nM			

From patent US12570609B2, “Tricyclic sulfones as ROR gamma modulators” (BRISTOL-MYERS SQUIBB COMPANY, priority 2020, dated 2026)
